For 18 compounds, TGI and GI50 results are on record in PubChem BioAssay (NCI).

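Results reflect a 48-hour exposure of cells in 96-well plates to compound at five concentrations. Abbreviation: GI50, concentration required for 50% inhibition of growth. TGI is the concentration that stops growth completely.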

Test systems include ACHN renal; CAKI-1 renal; CCRF-CEM leukemia; MALME-3M melanoma; MDA-MB-435; NCI-H460 lung; OVCAR-8 ovarian; SF-268 CNS; SF-539 CNS; UO-31 renal.
What all share (test): inhibition of tumour cell growth, NCI panel, 48 h

For the compound `O=C(O)C1CC(c2ccccc2)=NN1c1ccccc1` (configuration not stated), the TGI in the assay on ACHN renal is above 100 µM; with CAKI-1 renal it was above 100 µM; in the assay with CCRF-CEM leukemia, above 100 µM; in the assay with MALME-3M melanoma, 96.4 µM; with MDA-MB-435, above 100 µM; with NCI-H460 lung, above 100 µM. Further, the TGI with OVCAR-8 ovarian, in the assay on SF-268 CNS, in the assay on SF-539 CNS and in the assay with UO-31 renal was above 100 µM throughout.
For `O=S(=O)(O)c1c(N=Nc2c(O)ccc3ccccc23)ccc2ccccc12`, the TGI in the assay on CAKI-1 renal, in the assay on CCRF-CEM leukemia, in the assay with MALME-3M melanoma, in the assay on MDA-MB-435, in the assay on OVCAR-8 ovarian and in the assay with SF-268 CNS was above 100 µM each time. This compound also came in with a TGI in the assay on UO-31 renal above 100 µM.
With `O=C(/C=C/c1ccc(O)cc1)NCCc1ccc(O)cc1`, the TGI in the assay on ACHN renal was above 12.5 µM; with CAKI-1 renal, above 12.5 µM; in the assay on CCRF-CEM leukemia, 11.4 µM; with MALME-3M melanoma it was above 12.5 µM; with MDA-MB-435, above 12.5 µM; in the assay with NCI-H460 lung it was above 12.5 µM. In addition, the TGI with OVCAR-8 ovarian is above 12.5 µM; with SF-268 CNS it was above 12.5 µM; in the assay on SF-539 CNS, 11.1 µM; in the assay on UO-31 renal, above 12.5 µM.
On to `CC(O)C(O)C(N)CC=O` (configuration not stated), for which the TGI in the assay with CAKI-1 renal, in the assay on CCRF-CEM leukemia, in the assay with MALME-3M melanoma, in the assay on NCI-H460 lung, in the assay with OVCAR-8 ovarian and in the assay with SF-268 CNS was above 500 µM each time. Also, the TGI in the assay with SF-539 CNS and with UO-31 renal was above 500 µM each time.
`N#C/C=C1\C=CC(O)C(O)C1OC1OC(CO)C(O)C(O)C1O` (configuration not stated): the TGI in the assay on ACHN renal, in the assay on CAKI-1 renal, in the assay with CCRF-CEM leukemia, with MALME-3M melanoma, with MDA-MB-435 and with NCI-H460 lung was above 100 µM in each case. The TGI in the assay on OVCAR-8 ovarian, in the assay on SF-268 CNS, in the assay on SF-539 CNS and with UO-31 renal was above 100 µM throughout.
As for `CN(C)Cc1ccc(C(=O)Nc2ccc3ncnc(Nc4ccc(Oc5cccc(F)c5)c(Cl)c4)c3c2)cc1`, the GI50 in the assay with ACHN renal is 1.15 µM; in the assay on CAKI-1 renal, 1.68 µM; in the assay with CCRF-CEM leukemia, 1.65 µM; with MALME-3M melanoma, 1.53 µM; with MDA-MB-435 it was 1.74 µM; with NCI-H460 lung, 1.76 µM. Further, the GI50 with SF-268 CNS was 1.53 µM; in the assay with SF-539 CNS it was 1.6 µM; in the assay on UO-31 renal, 1.3 µM. Further, the TGI was found to be 2.36 µM in the assay on ACHN renal; 3.15 µM in the assay on CAKI-1 renal; 4.65 µM in the assay with CCRF-CEM leukemia; 3.01 µM in the assay with MALME-3M melanoma; 3.25 µM in the assay with MDA-MB-435; 3.31 µM in the assay on NCI-H460 lung. For the same compound, the TGI was 3.28 µM in the assay with SF-268 CNS, 3.04 µM in the assay with SF-539 CNS and 2.59 µM with UO-31 renal.
In the case of `Fc1ccc(-c2ccc(-c3nnc(-c4cc(F)c(Cl)cc4Cl)o3)o2)cc1Cl`, the GI50 in the assay on ACHN renal was 35.3 µM; with CAKI-1 renal it was 33.7 µM; in the assay on CCRF-CEM leukemia, 35 µM; with MALME-3M melanoma, 18.8 µM; in the assay with MDA-MB-435, 34.6 µM; with NCI-H460 lung, 29.7 µM. The GI50 in the assay with OVCAR-8 ovarian is 31.9 µM; in the assay with SF-268 CNS, 33 µM; with SF-539 CNS, 29.4 µM; with UO-31 renal, 34.7 µM. Further, the TGI in the assay with ACHN renal was above 100 µM; in the assay on CAKI-1 renal, 89.9 µM; in the assay with CCRF-CEM leukemia it was above 100 µM; with MALME-3M melanoma, 59 µM; in the assay on MDA-MB-435, above 100 µM; with NCI-H460 lung it was above 100 µM. Moreover, the TGI is above 100 µM with OVCAR-8 ovarian, above 100 µM with SF-268 CNS, 85.7 µM in the assay with SF-539 CNS and above 100 µM with UO-31 renal.
Take `Nc1nc(SCc2ccccc2)c2ncn(Cc3ccccc3)c2n1`: the TGI in the assay on ACHN renal was above 100 µM; in the assay on CAKI-1 renal, above 86.5 µM; with CCRF-CEM leukemia it was above 100 µM; in the assay with MALME-3M melanoma, above 89.1 µM; in the assay with MDA-MB-435, above 100 µM; in the assay with NCI-H460 lung it was above 100 µM. Besides, the TGI with OVCAR-8 ovarian, in the assay on SF-268 CNS, with SF-539 CNS and in the assay on UO-31 renal was above 100 µM in each case.
Take `COc1ccc(SC(C)(SC)c2ccccn2)c(OC)n1` (configuration not stated): the TGI in the assay on ACHN renal, with CAKI-1 renal, with MALME-3M melanoma, in the assay on MDA-MB-435, in the assay with NCI-H460 lung and with OVCAR-8 ovarian was above 100 µM throughout. For the same compound, the TGI in the assay with SF-268 CNS, in the assay with SF-539 CNS and with UO-31 renal was above 100 µM throughout.
Regarding `S=C(Nc1ccc(Cl)cc1)Nc1ccc(Cl)cc1` (tested in a mixture with another compound), the GI50 in the assay on ACHN renal is 2.37 µM; in the assay with CAKI-1 renal it was 2.15 µM; in the assay with CCRF-CEM leukemia, 1.61 µM; in the assay with MALME-3M melanoma, 2.55 µM; in the assay with MDA-MB-435 it was 2.45 µM; in the assay with NCI-H460 lung, 1.61 µM. In addition, the GI50 is 3.26 µM in the assay on OVCAR-8 ovarian, 3.2 µM with SF-268 CNS, 2 µM with SF-539 CNS and 2.26 µM in the assay with UO-31 renal. Further, the TGI in the assay with ACHN renal was 9.12 µM; in the assay with CAKI-1 renal, 7.08 µM; with CCRF-CEM leukemia, 9.83 µM; in the assay with MALME-3M melanoma it was above 100 µM; with MDA-MB-435 it was 7.86 µM; in the assay with NCI-H460 lung it was 4.46 µM. Moreover, the TGI in the assay on OVCAR-8 ovarian was above 100 µM; with SF-268 CNS, 15.8 µM; with SF-539 CNS it was 4.84 µM; with UO-31 renal, 34.9 µM.
As to `S=C1N(c2ccc(Cl)cc2)C2=C(N=Nc3ccccc3)C(=Nc3ccccc3S2)N1c1ccccn1`, the TGI with ACHN renal turned out to be 27.5 µM; in the assay with CAKI-1 renal, 26.7 µM; in the assay on CCRF-CEM leukemia it was 22.9 µM; with MALME-3M melanoma, 19.8 µM; with MDA-MB-435 it was 26.7 µM; with NCI-H460 lung it was 25.7 µM. Moreover, the TGI with OVCAR-8 ovarian stood at 28.2 µM; in the assay on SF-268 CNS, 19.6 µM; with SF-539 CNS it was 30.4 µM; in the assay on UO-31 renal, 21.7 µM.
Turning to `O=S(O)c1cc(Cl)cc(Cl)c1O`, the TGI with ACHN renal, in the assay with CCRF-CEM leukemia, with MALME-3M melanoma, in the assay with NCI-H460 lung, in the assay with SF-268 CNS and in the assay with SF-539 CNS was above 100 µM in each case. In the assay on UO-31 renal, this compound showed a TGI above 100 µM.
`C[N+]1(C)CCC(C#N)(c2ccccc2)CC1`: the TGI in the assay with ACHN renal, with CAKI-1 renal, with CCRF-CEM leukemia, in the assay with MALME-3M melanoma, with NCI-H460 lung and with OVCAR-8 ovarian was above 100 µM in each case. Moreover, the TGI in the assay with SF-268 CNS and with UO-31 renal was above 100 µM throughout.
Turning to `[C-]#[O+].[C-]#[O+].[Ir].[O-]c1cccc2cccnc12`, the GI50 with CAKI-1 renal, in the assay on MALME-3M melanoma, in the assay with NCI-H460 lung, with OVCAR-8 ovarian, in the assay with SF-539 CNS and in the assay with UO-31 renal was above 100 µM throughout. The TGI in the assay on CAKI-1 renal, in the assay on MALME-3M melanoma, with NCI-H460 lung, with OVCAR-8 ovarian, in the assay with SF-539 CNS and in the assay with UO-31 renal was above 100 µM in each case.
For `COc1cccc(-c2nc3c(C(=O)NCCN(C)C)cccc3[nH]2)c1`, the TGI in the assay with CAKI-1 renal was above 96 µM; in the assay on CCRF-CEM leukemia it was above 81.6 µM; with MALME-3M melanoma, 27.6 µM; in the assay with NCI-H460 lung it was 34.6 µM; in the assay with OVCAR-8 ovarian, above 58.4 µM; in the assay with SF-268 CNS, above 41.7 µM. Moreover, the TGI with SF-539 CNS turned out to be 41.4 µM; with UO-31 renal, 29.1 µM.
For `C=C1C(=O)OC2C1C(OC(=O)/C(C)=C/C)CC1(C)C(=O)CCC(=C)C21` (configuration not stated), the TGI was 8.23 µM in the assay with ACHN renal; 17.9 µM with CAKI-1 renal; above 80.9 µM in the assay on CCRF-CEM leukemia; 23.3 µM with MALME-3M melanoma; above 58.8 µM in the assay with MDA-MB-435; above 52.8 µM in the assay with NCI-H460 lung. Also, the TGI with OVCAR-8 ovarian stood at 29.6 µM; in the assay with SF-268 CNS, 33.4 µM; in the assay on SF-539 CNS, 32.1 µM; with UO-31 renal, 13.3 µM.
In the case of `CC(C)C(N=Cc1ccccc1O)C(=O)O` (configuration not stated), the TGI in the assay on ACHN renal, in the assay on CAKI-1 renal, in the assay on CCRF-CEM leukemia, in the assay on MALME-3M melanoma, in the assay on MDA-MB-435 and in the assay with NCI-H460 lung was above 100 µM in each case. Also, the TGI with OVCAR-8 ovarian, in the assay with SF-268 CNS, in the assay with SF-539 CNS and in the assay with UO-31 renal was above 100 µM throughout.
In the case of `O=C1/C(=C\c2ccc(-c3ccc(Cl)cc3Cl)o2)SC2N=C(COc3ccc(Cl)cc3)NN12` (configuration not stated), the TGI in the assay with ACHN renal, in the assay with CAKI-1 renal, in the assay on CCRF-CEM leukemia, in the assay on MALME-3M melanoma, with MDA-MB-435 and in the assay on NCI-H460 lung was above 100 µM each time. For the same compound, the TGI with OVCAR-8 ovarian, in the assay on SF-268 CNS, in the assay with SF-539 CNS and in the assay on UO-31 renal was above 100 µM each time.
